Test results: patent US11197873B2, “Azolium salts for treatment of non-muscle invasive bladder cancer” (The University of Akron, priority 2019, dated 2021)

Assays:
Type in all cases: cell-based, human
RT4 cell line = assay: Relative survival at varying concentration and exposure time, 24 h recovery; conditions: 5 min exposure time
Procedure: (§1) FIG. 4 provides the relative survival of RT4 cells in part A and RT112 cells in part B that were treated with varying concentrations of III for different exposure times followed by a 24 h recovery.
(§2) Select bladder cancer cell lines were seeded at 10,000 cells/well in black-walled 96 well plates and incubated for 24 h. Cells were treated with compound in their respective media (as recommended by ATCC) at concentrations of 500 to 7.8 μM dissolved in two-fold dilution increments or vehicle for 1 h, followed by replacement of treatment media with normal growth media. After 24 h, plates with cells were incubated at room temperature for 30 min, followed by the addition of 20 μL of CellTiter-Glo® luminescent cell viability assay reagent (Promega) and mixing. After 2 min of incubation at room temperature, luminescence for each plate was measured using IVIS. Relative survival for each treatment group was calculated using vehicle control. All treatments were performed in quadruplicate.

[1] = tested on: bladder cancer cell lines; assay: CellTiter-Glo assay, growth inhibition at 1 h exposure
Procedure: as §2

RT112 cell line = assay: Relative survival at varying concentration and exposure time, 24 h recovery; conditions: 5 min exposure time
Procedure: as §1
as §2, with “Cells were treated with compound in their respective media (as recommended by ATCC) at concentrations of 500 to 7.8 μM dissolved in two-fold dilution increments or vehicle for 1 h, followed by replacement of treatment media with normal growth media.” left out

GI50 compared with both triphenylphosphonium compounds [1]: extremely lower GI50 concentrations
Compound: CN1/C(=C/C=C/c2n(Cc3ccc4ccccc4c3)c(Cl)c(Cl)[n+]2Cc2ccc3ccccc3c2)Oc2ccccc21.[Cl-] [III, 4,5-dichloro-2-((1E,3Z)-3-(3-methylbenzoxazol-2(3H)-ylidene)prop-1-en-1-yl)-1,3-bis(naphthalen-2-ylmethyl)-1H-imidazolium chloride]
concentration that inhibits cell survival (RT4 cell line): 10 µM
concentration that inhibits cell survival (RT112 cell line): 40 µM
